# A melting point compilation (Tetko et al.)
row,Structure (SMILES),melting point [°C]
1,O=[N+]([O-])c1ccc(C=Cc2cccc(/C=C\c3ccc([N+](=O)[O-])cc3[N+](=O)[O-])c2)c([N+](=O)[O-])c1,243
2,CC(=O)c1csc(-c2ccc(OC(F)(F)F)cc2)n1,45.5 to 48
3,Nc1ccc(Cl)cc1N,76
4,O=C(Cc1ccccc1)C(c1ccccc1)N1CCCCC1 (stereo unspecified),137
5,COc1ccc(CCN2CCC(Nc3nc4ccccc4n3Cc3ccc(F)cc3)CC2)cc1,149
6,CCCC(C)OC(C)=O (stereo unspecified),-100
7,Oc1cc(Cl)c(Cl)c(Cl)c1Cl,116
8,COc1ccc(OC)c(NC(N)=S)c1,160
9,ClCc1cc2ccccc2nc1Cl,114 to 115
10,O=C(NO)c1ccccc1,128
11,O=C(Cl)c1cc(-c2ccco2)on1,74 to 76
12,CN(C)c1ccc(C=C2C(=O)OC(C)(C)OC2=O)cc1,162
13,CCC(C)c1ccc(O)cc1 (stereo unspecified),61.5
14,CC(C)(c1cc(Br)c(O)c(Br)c1)c1cc(Br)c(O)c(Br)c1,181
15,CCOC(=O)C(C=Cc1cccc(C=CC(C(=O)OCC)C(=O)OCC)c1)C(=O)OCC,100 to 102
16,CNc1ccccn1,15
17,O=c1ccn(C2CCC(CO)O2)c(=O)[nH]1 (stereo unspecified),128
18,CC(=O)Nc1c(C)ccc2c1C(=O)c1ccccc1C2=O,133
19,CCOc1ccc(-c2nnc3n2NC(c2ccccc2O)S3)cc1 (stereo unspecified),177
20,CCC(=O)c1cccc(Br)c1,40
21,CC1(C)NC(=CC(=O)c2ccccc2)C(C)(C)N1O,178 to 184
22,Cc1ccc(C)c2c1COC2=O,88
23,O=[N+]([O-])c1cccc(S(=O)(=O)NCCNS(=O)(=O)c2cccc([N+](=O)[O-])c2)c1,190
24,Nc1ccc(S(=O)(=O)c2ccc([N+](=O)[O-])cc2)cc1,170
25,O=C(O)Cn1c(=O)sc2cccc(Cl)c21,193
26,CCOP(=S)(OCC)SC1OCCOC1SP(=S)(OCC)OCC (stereo unspecified),-2

row,Structure (SMILES),melting point [°C]
1,Nc1ccc(C(=O)NC(CCC(=O)O)C(=O)O)cc1 (stereo unspecified),173
2,Nc1ccc(C(F)(F)F)cc1,38
3,CC(=O)c1ccc(-c2cccs2)s1,109 to 114
4,CC(=O)OC1=C(C(C)C)C(=O)C2=C(C1=O)C1(C)CCCC(C)(C)C1CC2OC(C)=O (stereo unspecified),121
5,C[P+]([O-])(CCCCN1C(=O)c2ccccc2C1=O)OCCCCN1C(=O)c2ccccc2C1=O (stereo unspecified),114
6,N#CCCNCCC#N,-6
7,O=C(O)Cc1ccc(Cl)nc1,174
8,CS(=O)(=O)c1ccc(C(=O)CBr)cc1,126 to 128
9,C/C=C/C(=O)N1C(=O)OC[C@@H]1Cc1ccccc1,84 to 85
10,O=Cc1cc(Cl)cc(C=O)c1O,119 to 125
11,COc1cc(NS(=O)(=O)c2ccc(N)cc2)nc(C)n1,146
12,Cc1ccc(Cl)c(O)c1F,48
13,CC(=O)c1ccc(-n2ccnc2)cc1,116
14,COC1(C)CC(c2ccccc2)c2c(c3ccccc3oc2=O)O1 (stereo unspecified),166
15,COC(=O)c1cc(C)nc(Cl)n1,110 to 111
16,CCC(C)c1cc([N+](=O)[O-])cc([N+](=O)[O-])c1O (stereo unspecified),40
17,Cc1noc(C)c1[N+](=O)[O-],57 to 60
18,Oc1ccccc1[C@H]1C[C@H](c2ccccc2)Sc2ccccc2N1,89.8
19,Cc1nccn1-c1cccc(C(=O)O)c1,182 to 184
20,CC=CC=CCCCCCCCO,32
21,CC(=O)OC1C2=C(C(=O)C(O)=C(C(C)C)C2=O)C2(C)CCCC(C)(C)C2C1O (stereo unspecified),216
22,COc1cc2ccc(=O)oc2c(O)c1O,231
23,NC1CCC(CC2CCC(N)CC2)CC1 (stereo unspecified),64.7
24,CCCCCCCCOc1ccccc1OCCCCCCCC,22 to 25
25,Cc1c(C(=O)c2ccccc2C(=O)O)sc2ccccc12,181 to 183
26,CCCCCCCCCCOc1ccc(/C=N/c2ccc(/C=C/C(=O)OCC)cc2)cc1,114 to 115

# Further lines, results first:
row,melting point [°C],Structure (SMILES)
1,133,COC(=O)C1=C(C(=O)OC)Cc2cc3c(cc2C1)CC3
2,103,COc1cccc(F)c1C#N
3,280,Cc1cc(C)c2c(N)n[nH]c2n1
4,185 to 190,O=C(O)C1CCC(c2ccccc2)CC1C(=O)O (stereo unspecified)
5,162 to 164,CCC1Oc2ccccc2C(=O)NC1=O (stereo unspecified)
6,169,O=C(O)c1nsc(Cl)c1Cl
7,70 to 74,Cc1c(Br)cc(N)c(N)c1C
8,143 to 145,NC(=S)Nc1ccccc1F
9,10,C1CCCCCCCCC1
10,105,Clc1ccc(Cl)c(-c2cc(Cl)c(Cl)c(Cl)c2)c1
11,78 to 80,O=S(=O)(Cl)Cc1ccccc1Br
12,112,N#CC1(OC(=O)c2ccccc2)Cc2ccccc21 (stereo unspecified)
13,154,O=S1(=O)CCN(CN2CCS(=O)(=O)NC2)CN1
14,53 to 54,Brc1ccc2ncsc2c1
15,102 to 103,N=c1sc(C(=O)c2cccs2)nn1-c1[nH]nc(-c2ccccc2)c1Br
16,149,COc1ncccc1C(=O)O
17,160,Cc1cc(C)cc(C2Oc3c(Cl)c(Cl)c(Cl)c(Cl)c3O2)c1
18,194,NC(=O)C1(N2C(=O)c3cccc(Cl)c3C2=O)CCCCC1
19,204 to 208,O=Cc1ccc(-c2ccc([N+](=O)[O-])cc2)o1
20,116 to 119,Cc1cccc(C=CC(=O)O)c1

row,melting point [°C],Structure (SMILES)
1,137 to 138,O=C(O)c1cnn(-c2ccc(Cl)cc2)c1C(F)(F)F
2,195,O=[N+]([O-])c1ccc(-c2nnc3n2NC(c2ccccc2O)S3)cc1 (stereo unspecified)
3,286,O=C1C2CC3CC(C2)CC1C3
4,216,Cc1ccc(C2(c3ccc(C)o3)C(=O)Nc3ccccc32)o1
5,144,O=C1CC(C(=O)O)CC(=O)C1=C(O)C1CC1 (stereo unspecified)
6,239 to 244,O=C(O)c1cn(C2CC2)c2cc(Cl)c(F)cc2c1=O
7,178,COc1ccc(-c2ccc(S(=O)(=O)NC(C(=O)O)C(C)C)cc2)cc1 (stereo unspecified)
8,193,Cc1ccc(NC(=O)C(C(F)(F)F)C(F)(F)F)c(C)c1
9,117,CC12CCCC1C1CCC3CC4(CCC3(C)C1CC2)OCCO4 (stereo unspecified)
10,178,CCOC(=O)CC(CC(=O)OCC)(c1cc(C)c(O)c(C)c1)c1cc(C)c(O)c(C)c1
11,112 to 115,CCOC(=O)C(N)=O
12,195 to 197,COc1ccc(C(=O)O)cc1C
13,37,Fc1cc(F)c(Br)c(Br)c1
14,203,CNc1c(C=O)c(=O)n(C)c(=O)n1C
15,78 to 80,O=C(CBr)c1ccc2c(c1)OCCCO2
16,90,CC1(C)OC(=O)CC1CC(=O)O (stereo unspecified)
17,14,CCCCCCCCC(C)=O
18,207,CCC1=C(C)CN(C(=O)NCCc2ccc(S(=O)(=O)NC(=O)NC3CCC(C)CC3)cc2)C1=O (stereo unspecified)
19,31,O=C(O)CCC(F)(F)F
